Laboratory results: US9657015B2, “Substituted bicyclic dihydropyrimidinones and their use as inhibitors of neutrophil elastase activity” (Boehringer Ingelheim International GmbH, priority 2014, dated 2017)
In brackets after ≈: the same amount, converted by molar mass.

Experiments:
[1] = Aqueous solubility (High Throughput Method); assay type: physicochemical; conditions: McIlvaine buffer pH 6.8 with 2.5% DMSO, aqueous buffer, kinetic from dmso stock; McIlvaine buffer pH 6.8, 2.5% DMSO, 24 h shaking
Procedure: Assay for Determination of Aqueous Solubility (“High Throughput Method”)
Starting from a 10 mM DMSO stock solution, aliquots are diluted with acetonitrile/water (1/1) and McIlvaine buffer pH 6.8, respectively. After 24 h of shaking, the solutions or suspensions are filtered and analyzed by LC-UV. The amount dissolved in buffer is compared to the amount dissolved in the acetonitrile/water (1/1) solution. Solubility is measured from 0.001 to 0.125 mg/ml at a DMSO concentration of 2.5%. If more than 90% of the compound is dissolved in buffer, the value is marked with “>”.

[2] = biological target: Human neutrophil elastase (Homo sapiens (Human), UniProt P08246); assay: Human Neutrophil Elastase Assay; assay type: biochemical; conditions: substrate MeOSuc-Ala-Ala-Pro-Val-AMC 250 μM, pH 7.5, room temperature
Human neutrophil elastase, sequence (P08246 30-247): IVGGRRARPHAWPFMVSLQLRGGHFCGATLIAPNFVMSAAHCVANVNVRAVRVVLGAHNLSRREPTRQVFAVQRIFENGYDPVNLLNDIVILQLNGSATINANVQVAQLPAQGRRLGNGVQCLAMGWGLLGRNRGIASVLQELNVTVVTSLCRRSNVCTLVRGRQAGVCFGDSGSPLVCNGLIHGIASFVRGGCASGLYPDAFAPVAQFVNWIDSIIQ
Procedure: The following buffers were used: Compound buffer: 100 mM Tris, 500 mM NaCl, adjusted to pH 7.5; Assay buffer: 100 mM Tris, 500 mM NaCl, adjusted to pH 7.5, containing 0.01% BSA.
Assay conditions: Test compounds were prediluted in DMSO and subsequently in compound buffer (5% DMSO final). […] After inactivation of the enzyme, fluorescence intensities were measured at 380 nm excitation and 460 nm emission wavelengths.
Each plate contains wells with a high value control (DMSO+enzyme+substrate) and wells with a low value control (DMSO+inactivated enzyme+substrate). IC50 values were estimated using a sigmoidal concentration response curve with variable slope. Means of low values were taken as 0%, means of high values as 100%.

[3] = biological target: neutrophil elastase in human plasma (Homo sapiens (Human), UniProt P08246); assay: Neutrophil elastase inhibitory activity in human plasma; assay type: biochemical; conditions: human plasma assay (zymosan-stimulated blood plasma), substrate 250 μM, pH 7.5
neutrophil elastase in human plasma, sequence (P08246 30-247): as above

[4] = Metabolic stability with human liver microsomes; assay type: in vitro ADME; conditions: pH 7.6; pooled human liver microsomes, 37° C., 1 μM test compound, 1 mg/ml microsomal protein, NADPH; read-out: t1/2 INVITRO
[5] = Drug transport across human Caco-2 cells; assay type: in vitro ADME; conditions: human, Caco-2 monolayers, pH 7.2, 37° C.; for Papp A→B at 10 µM: apical-to-basal, read-out: PEAB; for Papp B→A at 10 µM: basal-to-apical, read-out: PEBA
Description: Assay for Determination of Drug Transport Across Human Caco-2 Cells
The assay provides information on the potential of a compound to pass the cell membrane, on the extent of oral absorption as well as on whether the compound is actively transported by uptake and/or efflux transporters. For the measurement of permeability across polarized, confluent human cancer colon carcinoma cells 2 (Caco-2) cell monolayers grown on permeable filter supports are used as the in vitro absorption model.
Apparent permeability coefficients (PE) of the compounds across the Caco-2 monolayers are measured (pH 7.2, 37° C.) in apical-to-basal (AB) (absorptive) and basal-to-apical (BA) (secretory) transport direction. AB permeability (PEAB) represents drug absorption from the intestine into the blood and BA permeability (PEBA) drug secretion from the blood back into the intestine via both passive permeability as well as active transport mechanisms mediated by efflux and uptake transporters that are expressed on the Caco-2 cells. The compounds are assigned to permeability/absorption classes by comparison of the AB permeabilities with the AB permeabilities of reference compounds with known in vitro permeability and oral absorption in the human. Identical or similar permeabilities in both transport directions indicate passive permeation, vectorial permeability points to additional active transport mechanisms. […] Active transport is concentration-dependently saturable.
Caco-2 cells (1-2*10^5 cells/cm^2 area) are seeded on filter inserts (Costar transwell polycarbonate or PET filters, 0.4 μm pore size) and cultured (DMEM) for 10 to 25 days. Compounds are dissolved in appropriate solvent (like DMSO, 1-20 mM stock solutions). Stock solutions are diluted with HTP-4 buffer (128.13 mM NaCl, 5.36 mM KCl, 1 mM MgSO4, 1.8 mM CaCl2, 4.17 mM NaHCO3, 1.19 mM Na2HPO4×7H2O, 0.41 mM NaH2PO4×H2O, 15 mM HEPES, 20 mM glucose, pH 7.2) to prepare the transport solutions (typically 10 μM compound, final DMSO<=0.5%). The transport solution (TL) is applied to the apical or basolateral donor side for measuring A-B or B-A permeability (3 filter replicates), respectively. The receiver side contains HTP-4 buffer supplemented with 2% BSA. Samples are collected at the start and end of experiment from the donor and at various time intervals for up to 2 hours also from the receiver side for concentration measurement by LC-MS/MS or scintillation counting. Sampled receiver volumes are replaced with fresh receiver solution.
The apparent permeability coefficients (PEAB and PEBA) of selected compounds in the Caco-2 drug transport assay described above are listed in Table 9.

Compound | solubility at 24 h [1] | IC50 [2] | IC50 [3] | half-life at 1 μM [4] | Papp A→B at 10 µM [5] | Papp B→A at 10 µM [5]
N#Cc1ccc([C@H]2NC(=O)N(c3cccc(C(F)F)c3)C3=C2C(=O)NCC3)cc1 [Example 2A, (R)-4-(1-(3-(Difluoromethyl)phenyl)-2,5-dioxo-1,2,3,4,5,6,7,8-octahydropyrido[4,3-d]-pyrimidin-4-yl)benzonitrile] | > 92 µg/mL | 3.2 nM | 5.4 nM | > 2.17 h | 4.7 ×10⁻⁶ cm/s | 31 ×10⁻⁶ cm/s
CN1CCC2=C(C1=O)[C@@H](c1ccc(C#N)cc1)NC(=O)N2c1cccc(C(F)(F)F)c1 [Example 4A, (R)-4-(6-Methyl-2,5-dioxo-1-(3-(trifluoromethyl)phenyl)-1,2,3,4,5,6,7,8-octahydropyrido[4,3-d]pyrimidin-4-yl)benzonitrile] | > 89 µg/mL | 1.3 nM | 2.7 nM | > 2.17 h | 17 ×10⁻⁶ cm/s | 34 ×10⁻⁶ cm/s
CN1C(=O)N(c2cccc(C(F)(F)F)c2)C2=C(C(=O)NCC2)[C@H]1c1ccc(C#N)cc1 [Example 6, (R)-4-(3-Methyl-2,5-dioxo-1-(3-(trifluoromethyl)phenyl)-1,2,3,4,5,6,7,8-octahydropyrido[4,3-d]pyrimidin-4-yl)benzonitrile] | > 88 µg/mL | < 1 nM | 1 nM | > 2.17 h | 37 ×10⁻⁶ cm/s | 80 ×10⁻⁶ cm/s
CNC(=O)CN1C(=O)N(c2cccc(C(F)(F)F)c2)C2=C(C(=O)N(C)CC2)C1c1ccc(C#N)cc1 (centres unmarked) [Example 15, 2-(4-(4-Cyanophenyl)-6-methyl-2,5-dioxo-1-(3-(trifluoromethyl)phenyl)-1,2,5,6,7,8-hexahydropyrido[4,3-d]pyrimidin-3(4H)-yl)-N-methylacetamide] | – | 3.2 nM | 7.8 nM | – | – | –
CN(C)C(=O)CN1C(=O)N(c2cccc(C(F)(F)F)c2)C2=C(C(=O)N(C)CC2)C1c1ccc(C#N)cc1 (centres unmarked) [Example 15.1] | – | < 1 nM | 2.6 nM | – | – | –
CNC(=O)N1C(=O)N(c2cccc(C(F)(F)F)c2)C2=C(C(=O)NCC2)C1c1ccc(C#N)cc1 (centres unmarked) [Example 16, 4-(4-Cyanophenyl)-N-methyl-2,5-dioxo-1-(3-(trifluoromethyl)phenyl)-1,2,5,6,7,8-hexahydropyrido[4,3-d]pyrimidine-3(4H)-carboxamide] | – | < 1 nM | 2.4 nM | – | – | –
N#Cc1ccc(C2C3=C(CCNC3=O)N(c3cccc(C(F)(F)F)c3)C(=O)N2C(=O)NCCO)cc1 (centres unmarked) [Example 17, 4-(4-Cyanophenyl)-N-(2-hydroxyethyl)-2,5-dioxo-1-[3-(trifluoromethyl)phenyl]-1H,2H,3H,4H,5H,6H,7H,8H-pyrido[4,3-d]pyrimidine-3-carboxamide] | – | < 1 nM | < 1 nM | – | – | –
N#Cc1ccc(C2NC(=O)N(c3cccc(C(F)(F)F)c3)C3=C2C(=O)N(C(=O)NCCO)CC3)cc1 (centres unmarked) [Example 18, 4-(4-Cyanophenyl)-N-(2-hydroxyethyl)-2,5-dioxo-1-[3-(trifluoromethyl)phenyl]-1H,2H,3H,4H,5H,6H,7H,8H-pyrido[4,3-d]pyrimidine-6-carboxamide] | – | 3.8 nM | 6.7 nM | – | – | –
CCNC(=O)N1CCC2=C(C1=O)C(c1ccc(C#N)cc1)NC(=O)N2c1cccc(C(F)(F)F)c1 (centres unmarked) [Example 19, 4-(4-Cyanophenyl)-N-ethyl-2,5-dioxo-1-[3-(trifluoromethyl)phenyl]-1H,2H,3H,4H,5H,6H,7H,8H-pyrido[4,3-d]pyrimidine-6-carboxamide] | – | 4.9 nM | 18 nM | – | – | –
N#Cc1ccc(C2NC(=O)N(c3cccc(C(F)(F)F)c3)C3=C2C(=O)N(C(=O)NCCCO)CC3)cc1 (centres unmarked) [Example 20, 4-(4-Cyanophenyl)-N-(3-hydroxypropyl)-2,5-dioxo-1-[3-(trifluoromethyl)phenyl]-1H,2H,3H,4H,5H,6H,7H,8H-pyrido[4,3-d]pyrimidine-6-carboxamide] | – | 3.7 nM | 6.9 nM | – | – | –
N#Cc1ccc(C2NC(=O)N(c3cccc(C(F)(F)F)c3)C3=C2C(=O)NCC3)c(Br)c1 (centres unmarked) [Example 21, 3-Bromo-4-{2,5-dioxo-1-[3-(trifluoromethyl)phenyl]-1H,2H,3H,4H,5H,6H,7H,8H-pyrido[4,3-d]pyrimidin-4-yl}benzonitrile] | – | 1.9 nM | 1.9 nM | – | – | –
CN1C(=O)N(c2cccc(C(F)(F)F)c2)C2=C(C(=O)NCC2)C1c1ccc(C#N)cc1Br (centres unmarked) [Example 22, 3-Bromo-4-{3-methyl-2,5-dioxo-1-[3-(trifluoromethyl)phenyl]-1H,2H,3H,4H,5H,6H,7H,8H-pyrido[4,3-d]pyrimidin-4-yl}benzonitrile] | – | < 1 nM | 2.5 nM | – | – | –
N#Cc1ccc(C2NC(=O)N(c3cccc(C(F)(F)F)c3)C3=C2C(=O)NCC3)c(-c2cnco2)c1 (centres unmarked) [Example 23, 4-{2,5-Dioxo-1-[3-(trifluoromethyl)phenyl]-1H,2H,3H,4H,5H,6H,7H,8H-pyrido-[4,3-d]pyrimidin-4-yl}-3-(1,3-oxazol-5-yl)benzonitrile] | – | < 1 nM | 1.1 nM | – | – | –
Cn1cc(-c2cc(C#N)ccc2C2NC(=O)N(c3cccc(C(F)(F)F)c3)C3=C2C(=O)NCC3)cn1 (centres unmarked) [Example 24, 4-{2,5-Dioxo-1-[3-(trifluoromethyl)phenyl]-1H,2H,3H,4H,5H,6H,7H,8H-pyrido-[4,3-d]pyrimidin-4-yl}-3-(1-methyl-1H-pyrazol-4-yl)benzonitrile] | – | < 1 nM | 1.4 nM | – | – | –
N#Cc1ccc(C2NC(=O)N(c3cccc(C(F)(F)F)c3)C3=C2C(=O)NCC3)c(C(F)(F)F)c1 (centres unmarked) [Example 27, 4-{2,5-Dioxo-1-[3-(trifluoromethyl)phenyl]-1H,2H,3H,4H,5H,6H,7H,8H-pyrido-[4,3-d]pyrimidin-4-yl}-3-(trifluoromethyl)benzonitrile] | – | < 1 nM | < 1 nM | – | – | –
CN1C(=O)N(c2cccc(C(F)(F)F)c2)C2=C(C(=O)NCC2)C1c1ccc(C#N)cc1C(F)(F)F (centres unmarked) [Example 28, 4-{3-Methyl-2,5-dioxo-1-[3-(trifluoromethyl)phenyl]-1H,2H,3H,4H,5H,6H,7H,8H-pyrido[4,3-d]pyrimidin-4-yl}-3-(trifluoromethyl)benzonitrile] | – | < 1 nM | 1.1 nM | – | – | –
CN1C(=O)N(c2cccc(C(F)(F)F)c2)C2=C(C(=O)NCC2)C1c1ccc(C#N)cc1-c1ccncc1 (centres unmarked) [Example 33, 4-{3-Methyl-2,5-dioxo-1-[3-(trifluoromethyl)phenyl]-1H,2H,3H,4H,5H,6H,7H,8H-pyrido[4,3-d]pyrimidin-4-yl}-3-(pyridin-4-yl)benzonitrile] | – | < 1 nM | 5.3 nM | – | – | –
CN1CCC2=C(C1=O)C(c1ccc(C#N)cc1CO)N(C)C(=O)N2c1cccc(C(F)(F)F)c1 (centres unmarked) [Example 38, 4-{3,6-Dimethyl-2,5-dioxo-1-[3-(trifluoromethyl)phenyl]-1H,2H,3H,4H,5H,6H,7H,8H-pyrido[4,3-d]pyrimidin-4-yl}-3-(hydroxymethyl)benzonitrile] | 89 µg/mL (≈ 189 µM) | < 1 nM | 1.4 nM | – | 24 ×10⁻⁶ cm/s | 91 ×10⁻⁶ cm/s
CN1CCC2=C(C1=O)C(c1ccc(C#N)cc1-c1ccc(=O)n(C)n1)N(C)C(=O)N2c1cccc(C(F)(F)F)c1 (centres unmarked) [Example 41, 4-{3,6-Dimethyl-2,5-dioxo-1-[3-(trifluoromethyl)phenyl]-1H,2H,3H,4H,5H,6H,7H,8H-pyrido[4,3-d]pyrimidin-4-yl}-3-(1-methyl-6-oxo-1,6-dihydropyridazin-3-yl)-benzonitrile] | 93 µg/mL (≈ 170 µM) | – | 1 nM | > 2.17 h | 6 ×10⁻⁶ cm/s | 91 ×10⁻⁶ cm/s
